Assays:
[1] = molecular target: T1, aqueous (water-solubilized) GPx4 (Homo sapiens, UniProt P36969, U73G); experiment: 15N-HSQC CSP binding experiment with GPx4 in bulk aqueous conditions; settings: for Binding to aqueous GPx4 (CSPs versus mmRM): 400 μM fragment, 100 μM GPx4, 1% DMSO; for Binding to aqueous GPx4 (CSPs): 15 mM fragment, 100 μM GPx4, 5% DMSO
T1 construct: Truncated U46G-GPx4 with a TEV cleavable poly-histidine tag was inserted into vector; poly-histidine tag with TEV cleavage site; host or cells: BL21 (DE3) E. coli
T1 sequence (P36969 1-170 isoform P36969-2 U46G): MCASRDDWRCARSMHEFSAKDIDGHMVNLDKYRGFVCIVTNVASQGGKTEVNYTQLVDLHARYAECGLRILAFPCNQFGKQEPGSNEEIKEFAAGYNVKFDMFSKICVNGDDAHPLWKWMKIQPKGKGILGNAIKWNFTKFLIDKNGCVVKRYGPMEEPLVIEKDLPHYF
Protocol: Next, we sought to understand whether fragment hits were solely bound to the membrane-embedded form of GPx4 or could also bind to the aqueous form. We performed aqueous binding experiments with 3 fragment hits with varying hydrophobicities. Of the fragment hits with Kd < 1 mM, the most hydrophobic fragment (fragment 5, cLog D 2.05, 5-hydroxy-1,3-benzoxathiol-2-one) and a hydrophilic fragment with the strongest affinity (fragment 6, cLog D −2.14, (2-methoxyethyl)(4-pyridinylmethyl)amine hydrochloride) were selected, along with a compound with an amphipathic structure and only modest hydrophobicity (fragment 1, cLog D 1.05, 4-(phenylamino)-1,2-dihydropyridin-2-one). Aqueous GPx4 was combined with 400 μM of either fragments 1, 5, or 6 to directly compare to the mmRM experiments. […] Since our fragments have variable degrees of solubility and partitioning, we realized that a hydrophilic fragment like 6 may partition into the water core of the mmRM, essentially causing a concentration effect as observed previously.[32],[33] To rule this out, the concentration of the fragments was increased to 15 mM in an aqueous sample, which would be the effective concentration if all of the fragments partitioned completely into the RM water core. […] DLS measurements were also collected to check for fragment aggregation in the aqueous conditions.[58] […] Inspection of ^1H NMR spectra confirmed that the aggregation observed at high concentration of fragments 1 and 5 is a small portion of the overall fragment concentration and that most of the fragment is in solution.
Fragments 1, 5, and 6 were selected to perform proof-of-concept experiments in bulk aqueous conditions. 400 μM and 15 mM aliquots of fragment were vacuum-dried overnight to remove excess DMSO. An apo GPx4 reference was collected with 1% DMSO or 5% DMSO to ensure that CSP calculations took into account DMSO needed for fragment solubilization. 100 μM GPx4 was added to the dried fragments, and DMSO was added to a total of 1% for the 400 μM and 5% for the 15 mM fragment experiments. These percentages were the lowest amounts needed to solubilize the fragments in solution. Prior to experimentation, the pH of the sample was checked to ensure that no change was observed upon the addition of the fragments. However, the 100 mM Bis-Tris at pH 6.0 ensured that the pH was not altered. ^15N-HSQC experiments were collected, and CSPs were analyzed and compared to the top-shifting resonances determined from the mmRM experiments. DLS measurements were collected to assess fragment aggregation in the aqueous conditions using a Malvern Zetasizer Nano-S instrument.

[2] = Fragment partitioning in DLPC/DPC mmRMs by 2D 1H-1H NOESY; type: physicochemical; settings: 5 mM fragment, deuterated pentane and hexanol, no GPx4
Protocol: We sought to understand the potential membrane partitioning of these fragments by evaluating their behavior in mmRMs, again using fragments 1, 5, and 6 as our benchmarks. To evaluate fragment partitioning in the mmRM system, 2D ^1H–^1H NOESY experiments were performed, which report on the spatial proximity of intra- and intermolecular nuclei. […] The mmRMs were constructed from deuterated pentane and hexanol to reduce solvent signal and associated NOESY artifacts, which were still present, but NOESY measurements were possible.[60] […] Fragment 5 was the most hydrophobic fragment hit from this screen with a predicted cLog D of ∼2. […] A lack of NOEs to pentane is due to the necessity of using deuterated pentane for artifact reduction and attempts to directly observe solvent NOEs failed. The most hydrophilic fragment, fragment 6 with a predicted cLog D of about −2, is expected to predominantly have intermolecular interactions with the water phase of the mmRM (Figures 5c and S4c). However, interference from the water peak introduced streaking and precluded the visualization of clear cross-peaks.
Partitioning coefficients for fragment hits and analogues were calculated using a Marvin Log D calculator (Chemaxon) and were used to prioritize fragments for 2D NOESYs. mmRMs were premade as previously described and loaded with 5 mM dried fragment 1, 5, or 6 before shaking overnight. A high concentration of fragments is needed for these experiments to observe the intermolecular NOEs between the fragments and the membrane model components. For the DHPC/DMPC samples, the q = 1.0 bicelles were constructed routinely,[55] as described in the Supporting Information, with an additional step to ensure the complete removal of water before experimentation. An aliquot of buffer (100 mM Bis-Tris pH 6.0, 100 mM NaCl, and 10 mM DTT) was frozen and freeze-dried overnight to remove residual water. The dried buffer was then resuspended in 100% D2O, mixed, and frozen before another round of freeze-drying. […]

## O=c1oc2c(-c3ccc(Cl)c(Cl)c3)cc(O)cc2s1 [Analog 5.5]
[1]; 400 μM analogue, 1.5% DMSO
  CSPs of aqueous GPx4: little to no shifting

## O=c1cc(Nc2ccccc2)cc[nH]1 [Fragment 1, 4-(phenylamino)-1,2-dihydropyridin-2-one]
[2]
  Partitioning in mmRM (intermolecular NOEs): clear NOE cross-peaks to the surfactant shell
[1]
  Binding to aqueous GPx4 (CSPs versus mmRM): do not bind strongly to the aqueous form of the protein
  Binding to aqueous GPx4 (CSPs): neither produced significant CSPs

## O=c1oc2ccc(O)cc2s1 [Fragment 5, 5-hydroxy-1,3-benzoxathiol-2-one]
[2]
  Partitioning in mmRM (intermolecular NOEs): the majority of the fragment must reside in the alkane phase of the reverse micelle
[1]
  Binding to aqueous GPx4 (CSPs versus mmRM): do not bind strongly to the aqueous form of the protein
  Binding to aqueous GPx4 (CSPs): does produce some CSPs that could be detected by a soluble screen

## COCCNCc1ccncc1.Cl [Fragment 6, (2-methoxyethyl)(4-pyridinylmethyl)amine hydrochloride]
[2]
  Partitioning in mmRM (intermolecular NOEs): prefers to reside in the water core of the mmRM
[1]
  Binding to aqueous GPx4 (CSPs versus mmRM): do not bind strongly to the aqueous form of the protein
  Binding to aqueous GPx4 (CSPs): neither produced significant CSPs

Source: PMC11267533, “Ligandability at the Membrane Interface of GPx4 Revealed through a Reverse Micelle Fragment Screening Platform” (JACS Au, 2024)
